# Experimental data: ChEMBL document CHEMBL1134968, “Prodrug and covalent linker strategies for the solubilization of dual-action antioxidants/iron chelators” (Bioorg Med Chem Lett, 2002)
# Assay: Compound was tested for its solubility in DMSO/H2O in a ratio of (1:9)
# Format: ADME
# Conditions: DMSO/H2O (1:9); read-out: S
row,solubility,SMILES
1,10000 µg/mL,Cc1c(O)c(=O)ccn1CCNCc1cc(C(C)(C)C)c(O)c(C(C)(C)C)c1

# Assay: Compound was tested for its solubility in water
# Format: ADME
# Conditions: read-out: S
row,SMILES,solubility
1,CNCC(=O)Oc1c(C)c(C)c2c(c1C)CC(CCn1ccc(=O)c(O)c1C)O2 (stereo not given),> 20000 µg/mL
2,Cc1c(C)c2c(c(C)c1O)CC(CCn1ccc(=O)c(O)c1C)O2 (stereo not given),< 100 µg/mL
3,Cc1c(OC(=O)CCN)c(=O)ccn1CCCc1cc(C(C)(C)C)c(O)c(C(C)(C)C)c1,> 20000 µg/mL
4,Cc1c(C)c2c(c(C)c1O)CCC(C)(CNCCCCn1ccc(=O)c(O)c1C)O2 (stereo not given),< 100 µg/mL
5,Cc1c(OC(=O)c2ccc(N)cc2)c(=O)ccn1CCCc1cc(C(C)(C)C)c(O)c(C(C)(C)C)c1,< 100 µg/mL
6,Cc1c(O)c(=O)ccn1CCOCCOCCOCCOCCCc1cc(C(C)(C)C)c(O)c(C(C)(C)C)c1,< 100 µg/mL
7,Cc1c(C)c2c(c(C)c1OC(=O)CN(C)C)CC(CCn1ccc(=O)c(O)c1C)O2 (stereo not given),> 20000 µg/mL
8,Cc1c(O)c(=O)ccn1CCCc1cc(C(C)(C)C)c(O)c(C(C)(C)C)c1,< 100 µg/mL
9,Cc1c(C)c2c(c(C)c1OC(=O)C(N)C(C)C)CC(CCn1ccc(=O)c(O)c1C)O2 (stereo not given),> 20000 µg/mL

# Results, then the molecule that gave them:
row,solubility,SMILES
1,10000 µg/mL,Cc1c(C)c2c(c(C)c1OC(=O)CCCN)CC(CCn1ccc(=O)c(O)c1C)O2 (stereo not given)
2,10000 µg/mL,Cc1c(C)c2c(c(C)c1OC(=O)CCN)CC(CCn1ccc(=O)c(O)c1C)O2 (stereo not given)
3,< 100 µg/mL,Cc1c(O)c(=O)ccn1CCOCCOCCOCCOCCOCCCc1cc(C(C)(C)C)c(O)c(C(C)(C)C)c1
4,< 100 µg/mL,CC(=O)Oc1c(C)n(CCCc2cc(C(C)(C)C)c(O)c(C(C)(C)C)c2)ccc1=O
5,< 100 µg/mL,Cc1c(C)c2c(c(C)c1OC(=O)c1ccc(N)cc1)CC(CCn1ccc(=O)c(O)c1C)O2 (stereo not given)
